Results taken from patent publication US20220220373A1, “FLUORESCENT PROBES FOR MONOACYLGLYCEROL LIPASE (MAGL)” (Hoffmann-La Roche Inc., priority 2019, published 2022).

Target: T1, MAGL (Homo sapiens, UniProt Q99685)
T1 sequence (Q99685 1-303): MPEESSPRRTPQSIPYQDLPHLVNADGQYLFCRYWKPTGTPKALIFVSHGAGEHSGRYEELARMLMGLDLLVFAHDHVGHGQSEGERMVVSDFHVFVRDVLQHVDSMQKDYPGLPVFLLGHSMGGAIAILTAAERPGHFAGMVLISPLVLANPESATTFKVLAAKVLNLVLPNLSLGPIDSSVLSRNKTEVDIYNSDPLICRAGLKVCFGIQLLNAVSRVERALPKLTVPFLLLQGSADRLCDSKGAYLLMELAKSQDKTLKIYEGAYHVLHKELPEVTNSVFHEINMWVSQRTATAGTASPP
Test: 2-AG assay (MAGL inhibitory activity, hydrolysis of 2-arachidonoylglycerol followed by mass spectrometry)
Type: biochemical
Conditions: 50 pM MAGL, 8 μM 2-arachidonoylglycerol, 15 min pre-incubation, 30 min incubation at RT
Procedure: Compounds were profiled for MAGL inhibitory activity by determining the enzymatic activity by following the hydrolysis of the natural substrate 2-arachidonoylglycerol (2-AG) resulting in arachidonic acid, which can be followed by mass spectrometry. This assay is hereinafter abbreviated “2-AG assay”.
The 2-AG assay was carried out in 384 well assay plates (PP, Greiner Cat#784201) in a total volume of 20 μL. Compound dilutions were made in 100% DMSO (VWR Chemicals 23500.297) in a polypropylene plate in 3-fold dilution steps to give a final concentration range in the assay from 12.5 μM to 0.8 pM. […] compound dilutions (100% DMSO) were added to 9 μL MAGL in assay buffer (50 mM TRIS (GIBCO, 15567-027), 1 mM EDTA (Fluka, 03690-100 mL), 0.01% (v/v) Tween. After shaking, the plate was incubated for 15 min at RT. To start the reaction, 10 μL 2-arachidonoylglycerol in assay buffer was added. The final concentrations in the assay was 50 pM MAGL and 8 μM 2-arachidonoylglyerol. After shaking and 30 min incubation at RT, the reaction was quenched by the addition of […] of ACN containing 4 μM of d8-arachidonic acid. The amount of arachidonic acid was traced by an online SPE system (Agilent Rapidfire) coupled to a triple quadrupole mass spectrometer (Agilent 6460). A C18 SPE cartridge (G9205A) was used in an ACN/water liquid setup. The mass spectrometer was operated in negative electrospray mode following the mass transitions 303.1→259.1 for arachidonic acid and 311.1→267.0 for d8-arachidonic acid. The activity of the compounds was calculated based on the ratio of intensities [arachidonic acid/d8-arachidonic acid].

Structure (SMILES) | IC50 [nM]
NCCOCCOCCOCCC(=O)NCCOc1cccc([C@H](c2ccccc2)C2CCN(C(=O)N3CC[C@@H]4OCC(=O)N[C@@H]4C3)CC2)c1 (single isomer, unassigned) [Example 20, N-[2-[3-[(S or R)-[1-1(4aR,8aS)-3-Oxo-4,4a,5,7,8,8a-hexahydropyrido[4,3-b]11,4]oxazine-6-carbonyl]-4-piperidyfl-phenyl-methyl]phenoxy]ethyl]-3-[2-[2-(2-aminoethoxy)ethoxy]ethoxy]propanamide] | 11.4
O=C(CCOCCNC(=O)CCc1ccc2n1[B-](F)(F)[N+]1=C(c3ccc[nH]3)C=CC1=C2)NCCOc1cccc(C(c2ccccc2)C2CCN(C(=O)N3CC[C@@H]4OCC(=O)N[C@@H]4C3)CC2)c1 (single isomer, unassigned) [Example 21, N-[2-[3-[2-[3-[(S or R)-[1-[(4aR,8aS)-3-oxo-4,4a,5,7,8,8a-hexahydropyrido[4,3-b][1,4]oxazine-6-carbonyl]-4-piperidyl]-phenyl-methyl]phenoxy]ethylamino]-3-oxo-propoxy]ethyl]-3-12,2-difluoro-12-(1H-pyrrol-2-yl)-3-aza-1-azonia-2-boranuidatricyclo[7.3.0.03,7]dodeca-1(12),4,6,8,10-pentaen-4-yl]propanamide] | 0.3
O=C(CCOCCOCCOCCNc1ccc([N+](=O)[O-])c2nonc12)NCCOc1cccc([C@H](c2ccccc2)C2CCN(C(=O)N3CC[C@@H]4OCC(=O)N[C@@H]4C3)CC2)c1 (single isomer, unassigned) [Example 22, N-[2-[3-[(S or R)-11-1(4aR,8aS)-3-oxo-4,4a,5,7,8,8a-hexahydropyrido[4,3-b][1,4]oxazine-6-carbonyl]-4-piperidyl]-phenyl-methyl]phenoxy]ethyl]-3-[2-[2-[2-[(4-nitro-2,1,3-benzoxadiazol-7-yl)amino]ethoxy]ethoxy]ethoxy]propanamide] | 0.4
O=C(CCOCCOCCOCCNc1ccc([N+](=O)[O-])c2nonc12)NCCOc1cccc(C(c2ccccc2)C2CCN(C(=O)N3CC[C@@H]4OCC(=O)N[C@@H]4C3)CC2)c1 (stereo partly drawn) [Example 1, 3-(2-(2-(2-((7-Nitrobenzo[c][1,2,5]oxadiazol-4-yl)amino)ethoxy)ethoxy)ethoxy)-N-(2-(3-((1-((4aR,8aS)-3-oxooctahydro-2H-pyrido[4,3-b][1,4]oxazine-6-carbonyl)piperidin-4-yl)(phenyl)methyl)phenoxy)ethyl)propanamide] | 1
O=C(CCOCCNc1ccc([N+](=O)[O-])c2nonc12)NCCOc1cccc(C(c2ccccc2)C2CCN(C(=O)N3CC[C@@H]4OCC(=O)N[C@@H]4C3)CC2)c1 (stereo partly drawn) [Example 2] | 1.2
O=C(CCOCCOCCNc1ccc([N+](=O)[O-])c2nonc12)NCCOc1cccc(C(c2ccccc2)C2CCN(C(=O)N3CC[C@@H]4OCC(=O)N[C@@H]4C3)CC2)c1 (stereo partly drawn) [Example 3, 3-(2-(2-((7-Nitrobenzo[c][1,2,5]oxadiazol-4-yl)amino)ethoxy)ethoxy)-N-(2-(3-((1-((4aR,8aS)-3-oxooctahydro-2H-pyrido[4,3-b][1,4]oxazine-6-carbonyl)piperidin-4-yl)(phenyl)methyl)phenoxy)ethyl)propanamide] | 2.1
CC(C)(C)OC(=O)NCCOc1cccc(C(=C2CCN(C(=O)N3CC[C@@H]4OCC(=O)N[C@@H]4C3)CC2)c2ccccc2)c1 [Example 23, tert-Butyl (2-(3-((1-((4aR,8aS)-3-oxooctahydro-2H-pyrido[4,3-b][1,4]oxazine-6-carbonyl)piperidin-4-ylidene)(phenyl)methyl)phenoxy)ethyl)carbamate] | 5.8
O=C1CO[C@H]2CCN(C(=O)N3CCC(=C(c4ccccc4)c4cccc(OCCNc5ccc([N+](=O)[O-])c6nonc56)c4)CC3)C[C@H]2N1 [Example 24] | 5.5
CC(C)(C)OC(=O)NCCOc1ccc(C(=C2CCN(C(=O)N3CC[C@@H]4OCC(=O)N[C@@H]4C3)CC2)c2ccccc2)cc1 [Example 25, tert-Butyl (2-(4-((1-((4aR,8aS)-3-oxooctahydro-2H-pyrido[4,3-b][1,4]oxazine-6-carbonyl)piperidin-4-ylidene)(phenyl)methyl)phenoxy)ethyl)carbamate] | 13
